Measured values as given in ChEMBL document CHEMBL1127015, “Centrally acting serotonergic and dopaminergic agents. 1. Synthesis and structure-activity relationships of 2,3,3a,4,5,9b-hexahydro-1H-benz[e]indole derivatives” (J Med Chem, 1993).

Experiments:
Mus musculus [1] = assay: Time of effect in the face-to-face behavioral assay in the mouse when a dose of 0.0 micro mol/kg is administered subcutaneously; type: functional
Mus musculus [2] = assay: Time of effect in the isolation-induced aggression behavioral assay in the mouse when a dose of 10 micro mol/kg is administered intraperitoneally; type: functional
Mus musculus [3] = assay: Time of effect in the isolation-induced aggression behavioral assay in the mouse when a dose of 3.4 micro mol/kg is administered intraperitoneally; type: functional
Mus musculus [4] = assay: Maximum decrease in temperature when compound is administered subcutaneously; type: functional
D(2) dopamine receptor [5] = molecular target: T1, D(2) dopamine receptor (Rattus norvegicus, UniProt P61169); assay: Inhibitory concentration against [3H]raclopride-labeled dopamine receptor D2 in rat striatum; type: tissue-based
Rattus norvegicus [6] = assay: Inhibition of firing rates of dopaminergic neurons in the substantia nigra pars compacta by intravenous injection in rats.; type: functional; settings: Rattus norvegicus, Substantia nigra pars compacta, iv; read-out: ED50
Felis catus [7] = assay: Maximum decrease of arterial blood pressure at sympathetic nerve activity (SND) in anesthetized cat has been observed following 1 mg/kg dose; type: functional; design: scale not given: the % may be the effect or the level left
Felis catus [8] = assay: Maximum decrease of sympathetic nerve activity (SND) in anesthetized cat has been expressed as percent control; type: functional; design: scale not given: the % may be the effect or the level left
Mus musculus [9] = assay: Maximum decrease in temperature when compound is administered through peroral route; type: functional
Mus musculus [10] = assay: Effective dose on hypothermia in mouse when administered subcutaneously; type: functional; settings: sc
Rattus norvegicus [11] = assay: Inhibition of firing rates of serotonergic neurons in the dorsal raphe nucleus by intravenous injection in rats.; type: functional
Mus musculus [12] = assay: Effective dose on hypothermia in mouse when administered through peroral route; type: functional; settings: po
Mus musculus [13] = assay: Time of effect in the face-to-face behavioral assay in the mouse when a dose of 34 micro mol/kg is administered subcutaneously; type: functional
Rattus norvegicus [14] = assay: Effect on the synthesis rates of dopamine in the rat ventral limbic brain region at 12 micro mol/kg.; type: functional, Limbic system
Felis catus [15] = species on record: Felis catus; assay: Percent of arterial blood pressure at sympathetic nerve activity (SND) dose value was determined; type: functional
Rattus norvegicus [16] = assay: Effect on the synthesis rates of serotonin in the rat ventral limbic brain region at 12 micro mol/kg.; type: functional, Limbic system
Felis catus [17] = assay: Maximum decrease of sympathetic nerve activity (SND) in anesthetized cat; type: functional; design: scale not given: the % may be the effect or the level left
Rattus norvegicus [18] = assay: Inhibition of firing rates of serotonergic neurons in the dorsal raphe nucleus by intravenous injection in rats; type: functional
Felis catus [19] = assay: Effective dose at which the sympathetic nerve activity (SND) has been reduced to 50% of the pretreatment value in anesthetized cat; type: functional
Mus musculus [20] = assay: Antagonism of apomorphine in reserpinized mice when a dose of 3.5 micro mol/kg is administered intraperitoneally; type: functional
Mus musculus [21] = assay: Increase in locomotor activity in reserpinized mice following 0.4 umol/kg i.p.; type: functional
Mus musculus [22] = assay: Antagonism of apomorphine for 10-20 minutes in reserpinized mice when a dose of 3.5 micro mol/kg is administered intraperitoneally; type: functional
Mus musculus [23] = assay: Antagonism of apomorphine effects in reserpinized mice following 0.4 umol/kg i.p.; type: functional
D(2) dopamine receptor [24] = molecular target: T2, D(2) dopamine receptor (Homo sapiens, UniProt P14416); assay: Compound was evaluated for the intrinsic activity from GTP shift against dopamine receptor D2; type: functional
Mus musculus [25] = assay: Antagonism of apomorphine effects for 10-20 minutes in reserpinized mice following 0.4 umol/kg i.p.; type: functional
Mus musculus [26] = assay: Antagonism of apomorphine effects for 0-10 minutes in reserpinized mice following 0.4 umol/kg i.p.; type: functional; design: unit not given beside the values
Mus musculus [27] = assay: Ability to stimulate dopaminergic systems by effect on locomotor activity in reserpinized mice when a dose of 35 micro mol/kg is administered intraperitoneally; type: functional
Mus musculus [28] = assay: Antagonism of apomorphine for 10-20 minutes in reserpinized mice when a dose of 35 micro mol/kg is administered intraperitoneally; type: functional
D(2) dopamine receptor [29] = molecular target: T1, D(2) dopamine receptor; assay: Binding affinity against [3H]raclopride-labeled dopamine receptor D2 in rat striatum.; type: tissue-based
Mus musculus [30] = assay: Antagonism of apomorphine in reserpinized mice when a dose of 35 micro mol/kg is administered intraperitoneally; type: functional
Mus musculus [31] = assay: Ability to stimulate dopaminergic systems by effect on locomotor activity in reserpinized mice when a dose of 3.5 micro mol/kg is administered intraperitoneally; type: functional
Mus musculus [32] = assay: Antagonism of apomorphine for 0-10 minutes in reserpinized mice when a dose of 35 micro mol/kg is administered intraperitoneally; type: functional
Mus musculus [33] = assay: Antagonism of apomorphine for 0-10 minutes in reserpinized mice when a dose of 3.5 micro mol/kg is administered intraperitoneally; type: functional
Mus musculus [34] = assay: Ability to stimulate dopaminergic systems by effect on locomotor activity in reserpinized mice when a dose of 3.8 micro mol/kg is administered intraperitoneally; type: functional
Mus musculus [35] = assay: Antagonism of apomorphine in reserpinized mice when a dose of 3.8 micro mol/kg is administered intraperitoneally; type: functional
Mus musculus [36] = assay: Antagonism of apomorphine for 10-20 minutes in reserpinized mice when a dose of 3.8 micro mol/kg is administered intraperitoneally; type: functional
Mus musculus [37] = assay: Antagonism of apomorphine in reserpinized mice when a dose of 38 micro mol/kg is administered intraperitoneally; type: functional
Mus musculus [38] = assay: Antagonism of apomorphine for 0-10 minutes in reserpinized mice when a dose of 38 micro mol/kg is administered intraperitoneally; type: functional
D(2) dopamine receptor [39] = molecular target: T1, D(2) dopamine receptor; assay: (§1) Compound was evaluated for the binding affinity against [3H]U-86,170-labeled dopamine receptor D2 in cloned CHO cells; type: cell-based
Mus musculus [40] = assay: Antagonism of apomorphine for 0-10 minutes in reserpinized mice when a dose of 3.8 micro mol/kg is administered intraperitoneally; type: functional
Mus musculus [41] = assay: Antagonism of apomorphine for 10-20 minutes in reserpinized mice when a dose of 38 micro mol/kg is administered intraperitoneally; type: functional
Mus musculus [42] = assay: Ability to stimulate dopaminergic systems by effect on locomotor activity in reserpinized mice when a dose of 38 micro mol/kg is administered intraperitoneally; type: functional
D(2) dopamine receptor [43] = molecular target: T2, D(2) dopamine receptor; assay: as §1; type: cell-based
Rattus norvegicus [44] = assay: Effect on the synthesis rates of serotonin in the rat ventral limbic brain region at 2.7 micro mol/kg; type: functional, Limbic system
Mus musculus [45] = assay: Ability to stimulate dopaminergic systems by effect on locomotor activity in reserpinized mice when a dose of 3.7 micro mol/kg is administered intraperitoneally; type: functional
Mus musculus [46] = assay: Antagonism of apomorphine for 0-10 minutes in reserpinized mice when a dose of 37 micro mol/kg is administered intraperitoneally; type: functional
D(2) dopamine receptor [47] = molecular target: T2, D(2) dopamine receptor; assay: Binding affinity against [3H]U-86,170-labeled dopamine receptor D2 in cloned CHO cells; type: cell-based
Mus musculus [48] = assay: Antagonism of apomorphine for 10-20 minutes in reserpinized mice when a dose of 3.7 micro mol/kg is administered intraperitoneally; type: functional
Mus musculus [49] = assay: Antagonism of apomorphine in reserpinized mice when a dose of 37 micro mol/kg is administered intraperitoneally; type: functional
D(2) dopamine receptor [50] = molecular target: T2, D(2) dopamine receptor; assay: Intrinsic activity from GTP shift using membranes from CHO cells transfected with mammalian dopamine receptor D2.; type: cell membranes
Mus musculus [51] = assay: Antagonism of apomorphine for 0-10 minutes in reserpinized mice when a dose of 3.7 micro mol/kg is administered intraperitoneally; type: functional
Mus musculus [52] = assay: Ability to stimulate dopaminergic systems by effect on locomotor activity in reserpinized mice when a dose of 37 micro mol/kg is administered intraperitoneally; type: functional
Mus musculus [53] = assay: Antagonism of apomorphine for 10-20 minutes in reserpinized mice when a dose of 37 micro mol/kg is administered intraperitoneally; type: functional
Mus musculus [54] = assay: Antagonism of apomorphine in reserpinized mice when a dose of 3.7 micro mol/kg is administered intraperitoneally; type: functional

T1 sequence (P61169 whole entry): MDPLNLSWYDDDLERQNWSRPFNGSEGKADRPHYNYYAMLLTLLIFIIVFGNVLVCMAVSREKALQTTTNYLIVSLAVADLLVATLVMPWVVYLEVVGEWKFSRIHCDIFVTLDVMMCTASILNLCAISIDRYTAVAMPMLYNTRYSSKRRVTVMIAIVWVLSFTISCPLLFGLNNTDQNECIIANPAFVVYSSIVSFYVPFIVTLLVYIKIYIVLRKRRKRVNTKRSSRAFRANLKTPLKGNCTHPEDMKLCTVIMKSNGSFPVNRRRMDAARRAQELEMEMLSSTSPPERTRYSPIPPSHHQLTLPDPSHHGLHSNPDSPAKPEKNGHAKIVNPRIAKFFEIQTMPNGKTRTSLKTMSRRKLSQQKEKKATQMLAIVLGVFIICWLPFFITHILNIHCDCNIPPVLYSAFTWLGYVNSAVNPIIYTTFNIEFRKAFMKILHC
T2 sequence (P14416 whole entry): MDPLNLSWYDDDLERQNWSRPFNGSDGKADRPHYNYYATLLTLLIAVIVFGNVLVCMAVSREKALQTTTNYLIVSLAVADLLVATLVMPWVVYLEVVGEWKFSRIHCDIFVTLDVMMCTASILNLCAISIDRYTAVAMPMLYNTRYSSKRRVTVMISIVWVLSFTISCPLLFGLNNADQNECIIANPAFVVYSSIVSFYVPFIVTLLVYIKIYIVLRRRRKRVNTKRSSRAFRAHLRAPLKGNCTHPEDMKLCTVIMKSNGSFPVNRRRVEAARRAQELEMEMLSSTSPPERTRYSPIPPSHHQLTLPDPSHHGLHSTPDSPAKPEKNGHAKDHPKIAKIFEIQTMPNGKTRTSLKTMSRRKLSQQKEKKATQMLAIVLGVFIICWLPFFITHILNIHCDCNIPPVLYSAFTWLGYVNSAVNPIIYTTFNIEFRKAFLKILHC

`CCCN1[C@H](C)CC2c3c(cccc3OC)CC[C@H]21` (mixture of isomers) gave a Time (Mus musculus [1]) of 0.6 s, a Time (Mus musculus [2]) of 8 s and a Time (Mus musculus [3]) of 17 s. For the same compound, the Max temperature decrease (Mus musculus [4]) was 5.2, the IC50 (D(2) dopamine receptor [5]) was > 1 µM and the ED50 (Rattus norvegicus [6]) was 1.7 µmol/kg. It also gave a Control (Felis catus [7]) of 65%, a Control (Felis catus [8]) of 250% and a Max temperature decrease (Mus musculus [9]) of 2.4. The ED50 (Mus musculus [10]) was 19 µmol/kg, the ED50 (Rattus norvegicus [11]) was 0.1 µmol/kg and the ED50 (Mus musculus [12]) was 104 µmol/kg. It also gave a Time (Mus musculus [13]) of 1.5 s.
In the case of `C=CCN1CC[C@H]2c3ccccc3CC[C@H]21` (racemic), the Control (Rattus norvegicus [14]) is reported as 20%, the BP (Felis catus [15]) is reported as 76% and the Control (Rattus norvegicus [16]) is reported as -46%. For the same compound, the Control (Felis catus [17]) was 0%, the Max temperature decrease (Mus musculus [4]) was 4.4 and the IC50 (D(2) dopamine receptor [5]) was > 1 µM. It also gave a Control (Felis catus [7]) of 60%, a Max temperature decrease (Mus musculus [9]) of 4 and an ED50 (Rattus norvegicus [18]) of 0.12 µmol/kg. The ED50 (Mus musculus [10]) was 22 µmol/kg, the ED50 (Mus musculus [12]) was 69 µmol/kg and the ED50 (Felis catus [19]) was 0.36 µmol/kg.
Compound `CCCN1CC[C@H]2c3c(cccc3OC)CC[C@H]21` has a Locomotor activity (Mus musculus [20]) of 6, a Locomotor activity (Mus musculus [21]) of 19 and a Locomotor activity (Mus musculus [22]) of 67. It also gave a Locomotor activity (Mus musculus [23]) of 41, an Intinsic activity (D(2) dopamine receptor [24]) of 37% and a Locomotor activity (Mus musculus [25]) of 93. The Locomotor activity (Mus musculus [26]) was 60, the Locomotor activity (Mus musculus [27]) was 69 and the Locomotor activity (Mus musculus [28]) was 51. The Ki (D(2) dopamine receptor [29]) was 0.067 µM, the Locomotor activity (Mus musculus [30]) was 9 and the Locomotor activity (Mus musculus [31]) was 36. It also gave a Locomotor activity (Mus musculus [32]) of 49 and a Locomotor activity (Mus musculus [33]) of 72.
`C=CCN1CC[C@H]2c3c(O)cccc3CC[C@H]21` (racemic) was tested, and the Locomotor activity (Mus musculus [34]) was 63, the Locomotor activity (Mus musculus [35]) was 8 and the Locomotor activity (Mus musculus [36]) was 68. The Locomotor activity (Mus musculus [21]) was 135, the Locomotor activity (Mus musculus [37]) was 11 and the Locomotor activity (Mus musculus [23]) was 46. The Locomotor activity (Mus musculus [38]) was 54, the Ki (D(2) dopamine receptor [39]) was 0.153 µM and the Locomotor activity (Mus musculus [25]) was 62. For the same compound, the Locomotor activity (Mus musculus [26]) was 56, the Locomotor activity (Mus musculus [40]) was 78 and the Locomotor activity (Mus musculus [41]) was 69. The Locomotor activity (Mus musculus [42]) was 32.
With `COc1cccc2c1C1CCN(CCc3ccccc3)[C@H]1CC2` (stereo not given in full) the Ki (D(2) dopamine receptor [43]) was 0.392 µM.
Work on `O=C(CCCN1CCC(O)(c2ccc(Cl)cc2)CC1)c1ccc(F)cc1` [HALOPERIDOL] yielded a Control (Rattus norvegicus [44]) of -7%.
For `CCCN1CC[C@@H]2c3cccc(O)c3CC[C@H]21` (racemic), the Locomotor activity (Mus musculus [45]) was 2, the Locomotor activity (Mus musculus [21]) was 63 and the Locomotor activity (Mus musculus [46]) was 6. The Locomotor activity (Mus musculus [23]) was 72, the ED50 (Rattus norvegicus [6]) was 0.43 µmol/kg and the Locomotor activity (Mus musculus [25]) was 86. For the same compound, the Ki (D(2) dopamine receptor [47]) was 0.093 µM, the Locomotor activity (Mus musculus [48]) was 47 and the Locomotor activity (Mus musculus [49]) was 4. It also gave a Locomotor activity (Mus musculus [26]) of 54, an Intrinsic activity (D(2) dopamine receptor [50]) of 28% and a Locomotor activity (Mus musculus [51]) of 34. It also gave a Ki (D(2) dopamine receptor [29]) of 0.033 µM, a Locomotor activity (Mus musculus [52]) of 162 and a Locomotor activity (Mus musculus [53]) of 5. The Locomotor activity (Mus musculus [54]) was 46.
